Data as given in patent US20090221622A1, “TOPOTECAN READY TO USE SOLUTIONS” (EAGLE PHARMACEUTICALS, INC., priority 2008, published 2009).
Read-outs that look alike come from different tables or passages of the source.

Experiments:
[1] = aqueous media; cited from earlier work
[2] = Solubility of 10-HCPT in aqueous and acid media
[3] = Procedure: […] […] Quantitatively, 0.01 area % is equivalent to 0.1 μg/mL of 10-HPCT.
The solution was filled into either flint glass vials or polyethylene vials. One portion of the solution was transferred into 5 ml glass vials and another portion was placed into 5 ml PE vials.

[4] = in vivo; cited from earlier work

Row | 10-HCPT formed by degradation ([3]; 5 weeks, 1 mg/ml, pH 3.2) | 10-HCPT formed by degradation ([3]; 12 weeks, 1 mg/mL, pH 1) | 10-HCPT formed by degradation ([3]; 12 weeks, 1 mg/ml, pH 2) | SMILES | Solubility of 10-HCPT [1] | Solubility of 10-HCPT ([2]; 0.01N HCl containing 3% benzyl alcohol) | Increase of solubility of 10-HCPT ([2]; 0.01N HCl containing 3% benzyl alcohol versus about 2 ng/mL) | Solubility of 10-HCPT ([2]; 0.1 N HCl) | Solubility of 10-HCPT ([2]; 0.1 N MSA) | Saturation solubility of 10 HCPT ([2]; 10% lactic acid) | Solubility of 10 HCPT ([2]; 20% lactic acid solution) | Concentration of 10-HCPT reached before it precipitates ([2]; formulations prepared in hydrochloric acid, pH 1.5 or less) | Solubility of 10-HCPT ([2]; starting value, without benzyl alcohol) | Dose limiting toxicity [4]
1 |  |  |  | CC[C@@]1(O)C(=O)OCc2c1cc1n(c2=O)Cc2cc3cc(O)ccc3nc2-1 [Example 10-HCPT, 10-hydroxycamptothecin] | about 2 ng/ml | about 10 μg/mL | ~5000 fold | 6 μg/mL | about 6 μg/mL | 6.4 µg/mL | 15 µg/mL | about 4 μg/mL | about 2 ng/mL | 
2 | 5.64% | 0.07% | 0.6% | CC[C@@]1(O)C(=O)OCc2c1cc1n(c2=O)Cc2cc3c(CN(C)C)c(O)ccc3nc2-1 [Topotecan] |  |  |  |  |  |  |  |  |  | neutropenia (bone marrow suppression) and thrombocytopenia
